Reference: ChEMBL document CHEMBL1201862, “PubChem BioAssay data set” (2004)
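Results reflect a 48-hour exposure of cells in 96-well plates to compound at five concentrations. Abbreviation: GI50, concentration required for 50% inhibition of growth.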 Active and inactive are the calls of the source. Rule as the data show it: active = GI50 up to about 1.1 µM and inactive = higher.

Columns and labels:
Assay in all cases: inhibition of tumour cell growth, NCI panel, 48 h
M14 = system: M14
EKVX = system: EKVX
SNB-75 = system: SNB-75
SF-539 = system: SF-539
SR = system: SR
786-0 = system: 786-0
COLO 205 = system: COLO 205
NCI-H522 = system: NCI-H522
SF-268 = system: SF-268
PC-3 = system: PC-3
SK-MEL-28 = system: SK-MEL-28
UACC-257 = system: UACC-257
HCT-15 = system: HCT-15
MDA-MB-435 = system: MDA-MB-435
RXF 393 = system: RXF 393
OVCAR-5 = system: OVCAR-5
MOLT-4 = system: MOLT-4
HOP-92 = system: HOP-92
SW-620 = system: SW-620
MDA-N = system: MDA-N

Measured: GI50

CCN(CC)CCN(C)c1ccc(CO)c2c1c(=O)c1ccccc1[s+]2[O-] (stereo not given)
inactive: M14 2.11 µM | EKVX 5.96 µM | SNB-75 14.8 µM | SF-539 1.82 µM | SR 2.28 µM | 786-0 1.71 µM | COLO 205 7.06 µM | NCI-H522 2.02 µM | SF-268 16.5 µM | PC-3 13.7 µM | SK-MEL-28 5.05 µM | UACC-257 2 µM | MDA-MB-435 2 µM | RXF 393 12 µM | OVCAR-5 11.4 µM | MOLT-4 2.25 µM | HOP-92 8.89 µM | SW-620 1.88 µM
4.2 µM: HCT-15

CN(C)CC1CC/C(=C\c2ccc(Cl)c(Cl)c2)C1=O (stereo not given)
12.7 µM: HCT-15
inactive: M14 18.9 µM | EKVX 39.3 µM | SNB-75 > 41.7 µM | SF-539 > 40.5 µM | SR 2.2 µM | 786-0 11.7 µM | COLO 205 32.9 µM | NCI-H522 6.38 µM | SF-268 31.6 µM | SK-MEL-28 39.3 µM | UACC-257 24.7 µM | RXF 393 > 45.4 µM | OVCAR-5 > 55.2 µM | MOLT-4 4.76 µM | HOP-92 17.7 µM | SW-620 24.3 µM

CCSc1n/c(=C\c2ccco2)c2nnnn12
> 100 µM: HCT-15
inactive: M14 > 100 µM | EKVX > 100 µM | SNB-75 > 100 µM | SF-539 > 100 µM | MDA-N > 100 µM | 786-0 > 100 µM | COLO 205 > 100 µM | NCI-H522 > 100 µM | SF-268 > 100 µM | PC-3 > 100 µM | SK-MEL-28 > 100 µM | UACC-257 > 100 µM | MDA-MB-435 > 100 µM | RXF 393 > 100 µM | OVCAR-5 > 100 µM | MOLT-4 > 100 µM | HOP-92 > 100 µM | SW-620 > 100 µM

CC(=O)OC1C(COC(N)=O)OC(n2c(-c3ccc(C)cc3)cc(-c3ccccc3)c(C#N)c2=O)C(OC(C)=O)C1OC(C)=O (stereo not given)
> 100 µM: HCT-15
inactive: M14 > 100 µM | EKVX > 100 µM | SNB-75 44 µM | SF-539 > 100 µM | SR > 100 µM | 786-0 > 100 µM | COLO 205 > 100 µM | NCI-H522 > 100 µM | SF-268 > 100 µM | SK-MEL-28 > 100 µM | UACC-257 > 100 µM | RXF 393 > 100 µM | OVCAR-5 > 100 µM | MOLT-4 > 100 µM | HOP-92 9.86 µM | SW-620 > 100 µM

Cc1[nH]c2ncn3[nH]c(=S)nc3c2c1Cc1ccccc1
> 100 µM: HCT-15
inactive: M14 > 100 µM | EKVX > 100 µM | SNB-75 25.2 µM | SF-539 > 100 µM | 786-0 > 100 µM | COLO 205 > 100 µM | NCI-H522 72.4 µM | SF-268 > 100 µM | PC-3 > 100 µM | SK-MEL-28 > 100 µM | UACC-257 > 100 µM | MDA-MB-435 > 100 µM | RXF 393 26.5 µM | OVCAR-5 > 100 µM | MOLT-4 > 100 µM | HOP-92 > 100 µM | SW-620 > 100 µM

COC1=C(OC)C(=O)C(Sc2ccc3ccccc3c2)=CC1=O
9.68 µM: HCT-15
inactive: M14 4.35 µM | EKVX 11.9 µM | SNB-75 12.8 µM | SF-539 13.5 µM | SR 2.09 µM | 786-0 3.72 µM | COLO 205 7.24 µM | NCI-H522 1.82 µM | SF-268 9.86 µM | PC-3 10 µM | SK-MEL-28 16.3 µM | UACC-257 7.69 µM | MDA-MB-435 4.25 µM | RXF 393 6.85 µM | OVCAR-5 15.6 µM | MOLT-4 1.68 µM | HOP-92 19 µM | SW-620 3.5 µM

COCOCCC#CCO
> 100 µM: HCT-15
inactive: M14 > 100 µM | EKVX > 100 µM | SNB-75 > 100 µM | SF-539 > 100 µM | SR 83.8 µM | 786-0 > 100 µM | NCI-H522 68.4 µM | SF-268 > 100 µM | SK-MEL-28 > 100 µM | UACC-257 > 100 µM | RXF 393 > 100 µM | OVCAR-5 > 100 µM | MOLT-4 > 100 µM | HOP-92 > 100 µM | SW-620 > 100 µM

Cc1ccc(/C=C2\NC(=S)NC2=O)cc1
> 100 µM: HCT-15
inactive: M14 > 100 µM | EKVX 62.8 µM | SNB-75 > 100 µM | SF-539 > 100 µM | MDA-N > 100 µM | 786-0 > 100 µM | COLO 205 > 100 µM | NCI-H522 > 100 µM | SF-268 > 100 µM | PC-3 > 100 µM | SK-MEL-28 > 100 µM | MDA-MB-435 > 100 µM | RXF 393 > 100 µM | OVCAR-5 > 100 µM | MOLT-4 > 100 µM | SW-620 > 100 µM

CCC/C(C)=N/NC(=S)SC.CCC/C(C)=N/NC(=S)SC.[Zn+2]
inactive: M14 11.1 µM | EKVX 15 µM | SNB-75 18.7 µM | SF-539 13.7 µM | 786-0 10.9 µM | COLO 205 14.2 µM | NCI-H522 11.3 µM | SF-268 14.1 µM | PC-3 12.4 µM | SK-MEL-28 16 µM | UACC-257 7.46 µM | MDA-MB-435 11.4 µM | RXF 393 17.1 µM | OVCAR-5 10.3 µM | MOLT-4 1.47 µM | SW-620 9.44 µM
2.24 µM: HCT-15

O=C(Nc1ccn(C2CC(O)C(CO)O2)c(=O)n1)c1ccccc1 (stereo not given)
inactive: M14 > 100 µM | EKVX > 100 µM | SNB-75 > 100 µM | SF-539 > 100 µM | MDA-N > 100 µM | 786-0 > 100 µM | COLO 205 > 100 µM | NCI-H522 > 100 µM | SF-268 > 100 µM | PC-3 > 100 µM | SK-MEL-28 > 100 µM | UACC-257 > 100 µM | MDA-MB-435 > 100 µM | OVCAR-5 > 100 µM | MOLT-4 > 100 µM | SW-620 > 100 µM
> 100 µM: HCT-15

CCCCCCNC(=O)CCN(C(=O)O)S(=O)(=O)c1ccc(NC(=O)c2ccccc2)cc1
22 µM: HCT-15
inactive: M14 > 100 µM | EKVX > 100 µM | SNB-75 > 100 µM | SF-539 17.9 µM | SR 19.3 µM | 786-0 > 96.4 µM | COLO 205 24.8 µM | NCI-H522 > 20 µM | SF-268 > 78.9 µM | SK-MEL-28 > 100 µM | UACC-257 > 48.9 µM | RXF 393 > 100 µM | OVCAR-5 > 100 µM | MOLT-4 > 42.9 µM | HOP-92 > 100 µM | SW-620 14.2 µM

CCCCCCCCCCCCCCCCCCNc1nc(=O)n(C2CC(O)C(COP(=O)(O)O)O2)cc1F (stereo not given)
inactive: M14 > 100 µM | EKVX 99.5 µM | SNB-75 > 100 µM | SF-539 15 µM | MDA-N > 100 µM | 786-0 45.2 µM | COLO 205 > 67.1 µM | NCI-H522 > 100 µM | SF-268 49.4 µM | PC-3 26.1 µM | SK-MEL-28 > 100 µM | UACC-257 > 100 µM | MDA-MB-435 > 100 µM | RXF 393 > 80 µM | OVCAR-5 > 100 µM | MOLT-4 36 µM | SW-620 > 100 µM
> 100 µM: HCT-15

O=c1n(Cc2ccccc2)c(=O)n2c(=O)n(Cc3ccccc3)c(=O)n12
> 100 µM: HCT-15
inactive: SNB-75 > 100 µM | SF-539 39.8 µM | MDA-N > 100 µM | SR > 100 µM | 786-0 > 100 µM | COLO 205 38.3 µM | NCI-H522 > 100 µM | SF-268 > 100 µM | SK-MEL-28 > 100 µM | UACC-257 > 100 µM | MDA-MB-435 > 100 µM | HOP-92 > 100 µM | SW-620 > 100 µM

Cc1cc2c(cc1C)[n+]([O-])c(C(=O)CC(=O)C(=O)Nc1c(C(C)C)cccc1C(C)C)c(C)[n+]2[O-]
> 100 µM: HCT-15
inactive: M14 > 100 µM | EKVX > 100 µM | SNB-75 > 100 µM | SF-539 > 100 µM | SR > 100 µM | 786-0 > 100 µM | COLO 205 > 100 µM | NCI-H522 > 100 µM | SF-268 > 100 µM | SK-MEL-28 > 100 µM | UACC-257 > 100 µM | RXF 393 > 100 µM | OVCAR-5 > 100 µM | MOLT-4 > 100 µM | HOP-92 > 100 µM | SW-620 > 100 µM

Clc1ccc(CCN2CCOCC2)c(Cl)c1
inactive: M14 > 100 µM | EKVX > 100 µM | SNB-75 17.6 µM | SF-539 > 100 µM | SR > 100 µM | 786-0 > 100 µM | COLO 205 > 100 µM | NCI-H522 > 100 µM | SF-268 > 100 µM | SK-MEL-28 > 100 µM | UACC-257 > 100 µM | RXF 393 12.5 µM | OVCAR-5 > 100 µM | MOLT-4 > 100 µM | HOP-92 > 100 µM
> 100 µM: HCT-15

CN(C)CCCNC(=O)c1cccc2nc3ccccc3nc12
active: SF-268 0.32 µM
15.2 µM: HCT-15
inactive: M14 22 µM | EKVX 27.3 µM | SNB-75 35.8 µM | SF-539 16.3 µM | SR 4.57 µM | 786-0 51.1 µM | COLO 205 6.95 µM | NCI-H522 26.6 µM | SK-MEL-28 19.2 µM | UACC-257 13.2 µM | RXF 393 15.6 µM | OVCAR-5 20.9 µM | MOLT-4 9.77 µM | HOP-92 50.4 µM | SW-620 8.13 µM
